Laboratory results from patent US8815859B2, “Substituted pyrazin-2-ones and substituted 5,6,7,8-tetrahydroquinoxalin-2-ones and methods of use thereof” (Merck Patent GmbH, priority 2008, dated 2014).

Tests used:
INS-1 cells = assay: Insulin secretion assay in INS-1 cells (glucose at 4.2 mM); format: cell-based, rat; conditions: glucose 4.2 mM, 1 h incubation, control = glucose 4.2 mM; for Insulin secretion, % of ctrl at 10 μM of cpd: 10 μM of compound; for Insulin secretion, % of ctrl at 50 μM of cpd: 50 μM of compound
Description: INS-1 cells were cultured in complete medium, RPMI1640 containing 1 mM sodium pyruvate, 50 μM 2-mercaptoethanol, 2 mM glutamine, 10 mM HEPES, 100 IU/mL penicillin, and 100 μg/mL streptomycin (CM), supplemented with 10 mM glucose, and 10% (vol/vol) heat-inactivated fetal calf serum (FCS), as described by Asfari et al. (Endocrinology 130: 167-178, 1992).
INS-1 cells were plated and cultured in 48-well plates. After 2 days of culture, the medium was removed and cells were cultured for 24 h with a medium change to 5 mM glucose, 1% FCS. The cells were then washed with Krebs-Ringer Bicarbonate HEPES buffer (KRBH; 135 mM NaCl; 3.6 mM KCl; 5 mM NaHCO3; 0.5 mM NaH2PO4; 0.5 mM MgCl2; 1.5 mM CaCl2 and 10 mM HEPES; pH 7.4) 0,1% BSA containing 2.8 mM glucose and preincubated for 30 min at 37° C. in the same buffer. The cells were then washed twice and incubated for 1 h in KRBH 0.1% BSA containing 4.2 mM glucose and different concentrations of the tested molecule. Insulin concentration in the collected supernatants was measured with ELISA using rat insulin antibody (Insulin Rat Elit PLUS, cat. ref 10-1145-01).
Insulin secretion results are expressed in % of control (glucose 4.2 mM).
Insulin Secretion in INS-1 Cells (Glucose at 4.2 mM)

| melting point | Compound | Insulin secretion, % of ctrl at 10 μM of cpd (INS-1 cells) | Insulin secretion, % of ctrl at 50 μM of cpd (INS-1 cells) |
| --- | --- | --- | --- |
| 110 to 113 °C | CCn1c2c(nc(-c3ccc(Cl)cc3)c1=O)CCCC2 [Example 9, 3-(4-chlorophenyl)-1-ethyl-5,6,7,8-tetrahydroquinoxalin-2(1H)-one] | 343 % of ctrl | 371 % of ctrl |
|  | CCCn1ccnc(-c2ccccc2)c1=O [Example 9-3, 3-phenyl-1-propylpyrazin-2(1H)-one] | 145 % of ctrl | 182 % of ctrl |
|  | CC(C)Cn1ccnc(-c2ccc(Cl)cc2)c1=O [Example 9-7, 3-(4-chlorophenyl)-1-isobutylpyrazin-2(1H)-one] | 140 % of ctrl | 338 % of ctrl |
|  | CCn1ccnc(-c2ccc3c(c2)OCO3)c1=O [Example 5-5, 3-(1,3-benzodioxol-5-yl)-1-ethylpyrazin-2(1H)-one] | 158 % of ctrl | 204 % of ctrl |
| 170 °C | CCn1ccnc(-c2ccc(C(=O)O)cc2)c1=O [Example 5-15, 4-(4-ethyl-3-oxo-3,4-dihydropyrazin-2-yl)benzoic acid] |  |  |
|  | O=c1c(-c2ccc(Cl)cc2)nccn1CC1CC1 [Example 9-8, 3-(4-chlorophenyl)-1-(cyclopropylmethyl)pyrazin-2(1H)-one] | 172 % of ctrl | 333 % of ctrl |
| 170 °C | CCn1ccnc(-c2ccc3cc[nH]c3c2)c1=O [Example 5-16, 1-ethyl-3-(1H-indol-6-yl)pyrazin-2(1H)-one] |  |  |
| 108 to 110 °C | CCn1ccnc(-c2ccc(S(C)(=O)=O)cc2)c1=O [Example 5-2, 1-ethyl-3-[4-(methylsulfonyl)phenyl]pyrazin-2(114)-one] |  |  |
